Reference: patent EP1724268A1, “COMPOUND HAVING TGF-BETA INHIBITORY ACTIVITY AND PHARMACEUTICAL COMPOSITION CONTAINING SAME” (KIRIN BEER KABUSHIKI KAISHA, priority 2004, dated 2005)
Read-outs that look alike come from different tables or passages of the source.

Columns and labels:
BMP4 signal = assay: BMP signal inhibitory activity, p(GCCG)12-Luc reporter in HepG2 cells (Test Example 7); format: cell-based, human; settings: for inhibitory activity against BMP4 signals: as compared with Example 274 described in WO 03/00660; for Selectivity for BMP (times): Inhibitory activity against BMP4 signal (IC50)/Inhibitory activity against TGFβ signal (IC50), HepG2 reporter cells, BMP4 20 ng/ml, TGFβ-1 2 ng/ml, 4 hr
Description: The inhibitory activity of the compounds according to the present invention against BMP signals was studied using a cell line through which TGFb and BMP signals can be simultaneously observed. Specifically, the cell lines capable of detecting the two signal was generated by transfecting reporter plasmids for detection of TGFb and BMP signals into a human hepatocarcinoma cell line HepG2(available from ATCC) and was used as evaluation cells. For detection of TGF-beta signal, the plasmid having four tandem binding sequences of Smad2/3, TGF-beta signal transducers, to the upstream of a luciferases gene were used as a reporter plasmid (p(SBE)4-Luc/hygro). For detection of BMP signal, the plasmid having twelve tandem binding sequences of Smadl/5/8, BMP signal transducers, to the upstream of a luciferases gene were used as a reporter plasmid (p(GCCG)12-Luc/neo), according to the method described in Mol Biol Cell. 2000 11(2): 555-65. The test compound and TGFβ-1 (2 ng/ml) or BMP4 (20 ng/ml) were added to the cells, and the mixture was cultured for 4 hr. The compounds according to the present invention synthesized in the working example were used as the test compound. […] After the culture, the luciferase activity of the cells was measured by chemiluminescence (Steady Glo (trademark) luciferase assay system, available from Promega). Likewise, the luciferase activity was measured as control for the culture of cells with only TGFβ or BMP4 added thereto and the culture of cells with the addition of none of TGFβ, BMP4 and the test compound. The inhibitory activity IC50 of the compounds against TGFβ and BMP4 was calculated based on the results of measurement, and the kinase selectivity for BMP4 was determined by the following method. Kinase selectivity for BMP4 (times) = Inhibitory activity against BMP4 signal (IC50)/Inhibitory activity against TGFβ signal (IC50)

A549 cells = assay: Cell growth inhibitory activity using A549 cells (Test Example 6); format: cell-based, Human; settings: for inhibition at 30 µM: Homo sapiens, A549, compound 30 µM, 5% serum, 40 hr, counting kit-8, read-out: Cell growth inhibition rate (%); for inhibitory activity against cell growth of A549 cells: as compared with Example 274 described in WO 03/00660; for inhibitory activity against cell growth or BMP4 signals: as compared with Example 261 or Example 269 described in WO 03/00660
Procedure: Human lung cancer epithelial cells (A549) (available from ATCC) were suspended to a concentration of 3 × 10^4/ml in a DMEM/F12 medium containing 10%FCS, and the suspension was inoculated in 100 µl portions in wells of a 96-well plate. On the following day, a stock solution of the test compound which had been adjusted to 10 mM with DMSO was adjusted with a serum-free DMEM/F12 medium to a dose (60 µM) which was twice the evaluation concentration. After removing the medium inoculated in the 96 wells on the previous day, the solution was added in 50 µl portions to the plate. Next, a DMEM/F12 medium containing 10% serum was added in 50 µl portions to the wells, followed by culturing at 37°C for 40 hr. The final concentration of the serum and the concentration of the evaluation compound were 5% and 30 µM, respectively. The compounds according to the present invention synthesized in the working example were used as the test compound. […]
After 40 hr, the culture was removed, and 100 µl of a solution prepared by diluting counting kit-8 (purchased from Dojindo) with a serum-free F12 medium by 10 times was added, followed by culturing at 37°C for 20 to 30 min. After the confirmation of suitable color development, the absorbance at 450 nm was measured with ARVO (purchased from Wallach Bethold Japan). The cell growth inhibition in the test compound added wells were determined by presuming the absorbance value in the test compound-free wells to be 0% and the absorbance value in the cell-free wells to be 100%.

TGFβ signal = TGFβ signal inhibitory activity, (SBE)4-Luc reporter in A549 cells (Test Examples 1A and 1B); format: cell-based, human; settings: for inhibition at 3 µM / inhibition at 10 µM: Homo sapiens, A549, read-out: TGFβ inhibition rate, %
Procedure, shortened: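 Stable A549 line carrying (SBE)4-Luc Smad3-binding reporter treated with compound plus TGFβ-1 (2 ng/ml) for 4 hr; luciferase read by chemiluminescence. Percent inhibition relative to TGFβ-only and untreated cells, tested at 3 µM and 10 µM, some also at 1 µM.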

[1] = test compound 3 µM, TGFβ-1 2 ng/ml, 4 hr, Table 1A
[2] = test compound 10 µM, TGFβ-1 2 ng/ml, 4 hr, Table 1A
[3] = 3 µM, compounds of Reference Examples (Test Example 1B)
[4] = 10 µM, compounds of Reference Examples (Test Example 1B)
[5] = test compound 3 µM, Reference Examples, Table 1B
[6] = test compound 10 µM, Reference Examples, Table 1B

CCc1ccc(Oc2ccnc3ccc(OCCOC(C)=O)cc23)c(-c2ncccn2)n1 [Compound 206, 2-[4-(6-Ethyl-2-pyrimidin-2-yl-pyridin-3-yloxy)-quinolin-6-yloxy]-ethyl acetate]
inhibitory activity against BMP4 signals (BMP4 signal): reduced inhibitory activity | inhibition at 30 µM (A549 cells): -1% | inhibitory activity against cell growth of A549 cells (A549 cells): reduced inhibitory activity | inhibition at 3 µM (TGFβ signal; [1]): 89%

Cc1ccc(Oc2ccnc3ccc(OCCCO)cc23)c(-c2ncccn2)n1 [Compound 222, 3-[4-(6-Methyl-2-pyrimidin-2-yl-pyridin-3-yloxy)-quinolin-6-yloxy]-propan-1-ol]
inhibitory activity against BMP4 signals (BMP4 signal): reduced inhibitory activity | inhibition at 30 µM (A549 cells): 6% | inhibitory activity against cell growth of A549 cells (A549 cells): reduced inhibitory activity | inhibition at 3 µM (TGFβ signal; [1]): 91% | inhibition at 10 µM (TGFβ signal; [2]): 100%

CCc1ccc(Oc2ccnc3ccc(O)cc23)c(-c2ccccn2)n1 [Compound 184, 4-(6-Ethyl-[2,2']bipyridinyl-3-yloxy)-quinolin-6-ol]
Selectivity for BMP (times) (BMP4 signal): > 428 times | inhibition at 30 µM (A549 cells): 8% | inhibitory activity against cell growth or BMP4 signals (A549 cells): reduced inhibitory activity | inhibition at 3 µM (TGFβ signal; [1]): 100% | inhibition at 10 µM (TGFβ signal; [2]): 100%

Cc1ccc(Oc2ccnc3ccc(OCCO)cc23)c(-c2ncccn2)n1 [Compound 202, 2-[4-(6-Methyl-2-pyrimidin-2-yl-pyridin-3-yloxy)-quinolin-6-yloxy]-ethanol]
Selectivity for BMP (times) (BMP4 signal): 21.4 times | inhibitory activity against BMP4 signals (BMP4 signal): reduced inhibitory activity | inhibition at 30 µM (A549 cells): 8% | inhibitory activity against cell growth of A549 cells (A549 cells): reduced inhibitory activity | inhibition at 3 µM (TGFβ signal; [1]): 86%

CCc1ccc(Oc2ccnc3ccc(OC(C)=O)cc23)c(-c2ccccn2)n1 [Compound 186, 4-(6-Ethyl-[2,2']bipyridinyl-3-yloxy)-quinolin-6-ylacetate]
inhibition at 30 µM (A549 cells): -2% | inhibition at 3 µM (TGFβ signal; [1]): 100% | inhibition at 10 µM (TGFβ signal; [2]): 100%

CCc1ccc(Oc2ccnc3cc(C(N)=O)c(OC)cc23)c(-c2ccccn2)n1 [Compound 179, 4-(6-Ethyl-[2,2']bipyridinyl-3-yloxy)-6-methoxy-quinoline-7-carboxylic acid amide]
inhibition at 30 µM (A549 cells): -3% | inhibitory activity against cell growth or BMP4 signals (A549 cells): reduced inhibitory activity | inhibition at 3 µM (TGFβ signal; [1]): 100% | inhibition at 10 µM (TGFβ signal; [2]): 100%

Cc1ccc(Oc2ccnc3ccc(OCCO)cc23)c(-c2ccccn2)n1 [Compound 205, 2-[4-(6-Methyl-[2,2']bipyridyl-3-yloxy)-quinolin-6-yloxy]-ethanol]
inhibition at 30 µM (A549 cells): 9% | inhibitory activity against cell growth or BMP4 signals (A549 cells): reduced inhibitory activity | inhibition at 3 µM (TGFβ signal; [1]): 98%

4-(6-Fluoro-2-iodo-pyridin-3-yloxy)-6,7-dimethoxy-quinoline [Compound r211]
TGFβ inhibition rate, % (TGFβ signal; [3]): 87% | TGFβ inhibition rate, % (TGFβ signal; [4]): 100%

Cc1ccc(Oc2ccnc3ccc(OCCCN4CCCCC4)cc23)c(-c2ncccn2)n1 [Compound 212, 4-(6-Methyl-2-pyrimidin-2-yl-pyridin-3-yloxy)-6-(3-piperidin-1- ? -propoxy)-quinoline]
inhibition at 3 µM (TGFβ signal; [1]): 55%

COc1cc2c(Oc3ccc(C)cc3C(=O)c3ccccc3)ccnc2cc1OCC(O)Cn1ccnc1 (stereo not shown) [r160]
inhibition at 3 µM (TGFβ signal; [5]): 98% | inhibition at 10 µM (TGFβ signal; [6]): 100%

COc1cc2c(Oc3cc(C)c(C)nc3-c3cccc(C)n3)ccnc2cc1OCC(O)CO (stereo not shown) [Compound r449]
inhibition at 3 µM (TGFβ signal; [3]): 74% | inhibition at 10 µM (TGFβ signal; [4]): 98%

COc1cc2c(Oc3ccc(C)cc3C(=O)c3ccccc3)ccnc2cc1OCCCCN1CCC(N2CCCC2)CC1 [Compound r145]
inhibition at 3 µM (TGFβ signal; [5]): 87% | inhibition at 10 µM (TGFβ signal; [6]): 100%

COc1cc2c(Oc3cc(C)c(C)cc3C(C)=O)ccnc2cc1OCCCCl [Compound r318]
inhibition at 3 µM (TGFβ signal; [3]): 82% | inhibition at 10 µM (TGFβ signal; [4]): 100%
